Reference: the supplement of paper PMC3493320

These compounds were tested on NCI-H295R (assay: IC50 (antiproliferative, ATP content)). Conditions: 48 h.
Outline: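 Compounds were pin-transferred at 8 final concentrations between 0.6 nM and 46 µM onto adrenocortical carcinoma cells (1500 per well, 1536-well plates) that had been cultured overnight in serum-free DMEM with ITS. Plates then stood 48 h at 37 °C, 5% CO2, and ATP was detected by CellTiter-Glo luminescence. IC50 was derived from logistic fits of normalised signal, and compounds giving no concentration response were noted as above the top dose.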

Row | IC50 | SMILES
1 | > 46 µM | CC(C)(C)C(=O)Oc1ccc(S(=O)(=O)Nc2ccccc2C(=O)NCC(=O)[O-])cc1.O.O.O.O.[Na+]
2 | > 46 µM | CC(=O)NO
3 | > 46 µM | O=C(CCNNC(=O)c1ccncc1)NCc1ccccc1
4 | > 46 µM | COc1ccc(C(=O)N2CCN(CC(=O)N3CCOCC3)CC2)cc1
5 | > 46 µM | CNCCC(Oc1ccccc1OC)c1ccccc1 (configuration not stated)
6 | > 46 µM | NS(=O)(=O)c1cc(C2(O)NC(=O)c3ccccc32)ccc1Cl (configuration not stated)
7 | > 46 µM | C/C(=C(/CCOP(=O)(O)O)SC(=O)c1ccccc1)N(C=O)Cc1cnc(C)nc1N
8 | > 46 µM | O=C(O)C(N12)=[C@@]([C@@H]3OCCC3)S[C@]1([H])[C@]([C@@H](C)O)([H])C2=O
9 | > 46 µM | O=[C@](CO)[C@@H]2[C@](CC1)(C)[C@](CC2)([H])[C@@](CC4)([H])[C@@]1([H])[C@](CC3)(C)C4=CC3=O
10 | > 46 µM | Nc1nc2c(ncn2COC(CO)CO)c(=O)[nH]1
11 | > 46 µM | O=C(O)c1ccccc1OP(=O)(O)O
12 | > 46 µM | CC(C)NCC(O)c1ccc(O)c(O)c1 (configuration not stated)
13 | > 46 µM | COC(=O)N/N=C/c1c[n+]([O-])c2ccccc2[n+]1[O-]
14 | > 46 µM | CC(=O)N(CC(C)C(=O)O)c1c(I)cc(I)c(N)c1I (configuration not stated)
15 | > 46 µM | CC(c1cc2ccccc2s1)N(O)C(N)=O (configuration not stated)
16 | > 46 µM | CC1(C)OC(=O)NC1=O
17 | > 46 µM | Cl.O=C1c2cccc3c2[C@H](CCC3)CN1[C@@H]1CN2CCC1CC2
18 | > 46 µM | O=C(NC(Cc1cc(=O)[nH]c2ccccc12)C(=O)O)c1ccc(Cl)cc1 (configuration not stated)
19 | > 46 µM | CC(C)CCCC(C)N (configuration not stated)
20 | > 46 µM | CC(C)(C#N)c1cc(Cn2cncn2)cc(C(C)(C)C#N)c1
21 | > 46 µM | CC1=NN(c2ccccc2)C(=O)C1
22 | > 46 µM | CSCCC(N)C(=O)O (configuration not stated)
23 | > 46 µM | CC(C)CN(C[C@@H](O)[C@H](Cc1ccccc1)NC(=O)O[C@H]1CO[C@H]2OCC[C@H]21)S(=O)(=O)c1ccc(N)cc1

Row | IC50 | SMILES
24 | > 46 µM | CCN(CC)C(=O)c1cccc(C)c1
25 | > 46 µM | O=C(O)[C@@H]1C[C@H](CP(=O)(O)O)CCN1
26 | > 46 µM | OCc1ccccc1
27 | > 46 µM | CC(O)CN(C)C (configuration not stated)
28 | > 46 µM | COc1cc(NS(=O)(=O)c2ccc(N)cc2)ncn1
29 | > 46 µM | CCCCCCCC/C=C\CCCCCCCCN
30 | > 46 µM | CCOC(C)OCC
31 | > 46 µM | Nc1nc(NC2CC2)c2ncn([C@@H]3C=C[C@@H](CO)C3)c2n1
32 | > 46 µM | COc1ccccc1OCC(O)CN1CCN(CC(=O)Nc2c(C)cccc2C)CC1 (configuration not stated)
33 | > 46 µM | CN(C)c1nc(N(C)C)nc(N(C)C)n1
34 | > 46 µM | CCC1Nc2cc(Cl)c(S(N)(=O)=O)cc2S(=O)(=O)N1 (configuration not stated)
35 | > 46 µM | CN(C)CCOC(c1ccccc1)c1ccccc1
36 | > 46 µM | C[C@]12CCC(=O)C=C1CC[C@H]1[C@@H]3CC[C@](O)(C(=O)CO)[C@@]3(C)C[C@H](O)[C@@]12F
37 | > 46 µM | COc1cc(C(=O)NCc2ccc(OCCN(C)C)cc2)cc(OC)c1OC.Cl
38 | > 46 µM | Nc1nc(=O)[nH]cc1F
39 | > 46 µM | CO[C@@]1(NC(=O)C(C(=O)[O-])c2ccc(O)cc2)C(=O)N2C(C(=O)[O-])=C(CSc3nnnn3C)CO[C@@H]21.[Na+].[Na+] (some centres not stated)
40 | > 46 µM | FC(F)(F)c1ccccc1-n1ccnc1
41 | > 46 µM | NC(=O)c1ccc([N+](=O)[O-])cc1Cl
42 | > 46 µM | CN(C)CCN1C(=O)c2ccccc2N(C)c2ccccc21.Cl
43 | > 46 µM | C=CCCCCCCCCC(=O)OC
44 | > 46 µM | CCCCCCCCCCCCCCCCCCO
45 | > 46 µM | Cc1nc(C)c(Cl)c(O)c1Cl
46 | > 46 µM | O=C(CCCN1CCN2CCCC2C1)c1ccc(F)cc1 (configuration not stated)

Row | IC50 | SMILES
47 | > 46 µM | CCCn1c(=O)[nH]c(=O)c2[nH]cnc21
48 | > 46 µM | O=[C@](COC(C(C)(C)C)=O)[C@@H]2[C@](CC1)(C)[C@](CC2)([H])[C@@](CC4)([H])[C@@]1([H])[C@](CC3)(C)C4=CC3=O
49 | > 46 µM | O=P([O-])([O-])OP(=O)([O-])[O-].[Na+].[Na+].[Na+].[Na+]
50 | > 46 µM | OC(Cn1cncn1)(Cn1cncn1)c1ccc(F)cc1F
51 | > 46 µM | O=C1C(CCS(=O)c2ccccc2)C(=O)N(c2ccccc2)N1c1ccccc1 (configuration not stated)
52 | > 46 µM | CS(=O)(=O)CCNCc1ccc(-c2ccc3ncnc(Nc4ccc(OCc5cccc(F)c5)c(Cl)c4)c3c2)o1
53 | > 46 µM | CC(=O)Oc1ccc(C(=C2CCCCC2)c2ccc(OC(C)=O)cc2)cc1
54 | > 46 µM | CCCCC(C)(O)C/C=C/[C@H]1[C@H](O)CC(=O)[C@@H]1CCCCCCC(=O)OC (some centres not stated)
55 | > 46 µM | CCOC(=O)[N-]c1c[n+](N2CCOCC2)no1
56 | > 46 µM | OC[C@@H](O)[C@@H](O)[C@H](O)[C@H](O)CO
57 | > 46 µM | NC(=O)OCC(O)COc1ccc(Cl)cc1 (configuration not stated)
58 | > 46 µM | Cl.Nc1c(Br)cc(Br)cc1CN[C@H]1CC[C@H](O)CC1
59 | > 46 µM | C[C@H](O)C(=O)Nc1c(I)c(C(=O)NC(CO)CO)c(I)c(C(=O)NC(CO)CO)c1I
60 | > 46 µM | CCn1ccnc1CC1COc2ccccc2O1 (configuration not stated)
61 | > 46 µM | COc1ccc(-c2noc(CC(=O)O)c2-c2ccc(OC)cc2)cc1
62 | > 46 µM | CCOC(=O)O[C@]1(C(=O)COC(=O)CC)CC[C@H]2[C@@H]3CCC4=CC(=O)C=C[C@]4(C)[C@H]3[C@@H](O)C[C@@]21C
63 | > 46 µM | CCOC(=O)Cc1ccc(-c2ccccc2)cc1
64 | > 46 µM | O=C1C=CC([C@](N)2CC(C)=C3)=C(C[C@H]3/[C@]2=C\C)N1
65 | > 46 µM | Cn1nnc2c(C(N)=O)ncn2c1=O
66 | > 46 µM | N/C(N)=N/C1=NC(CSCCC(N)=NS(N)(=O)=O)=CS1
67 | > 46 µM | CCCCCCc1ccc(O)cc1O
68 | > 46 µM | CCN1CCc2nc(N)oc2CC1.Cl.Cl
69 | > 46 µM | CCn1cc(C(=O)O)c(=O)c2cc(F)c(N3CCNCC3)cc21

Row | IC50 | SMILES
70 | > 46 µM | Clc1cccc(Cl)c1N=C1NCCN1
71 | > 46 µM | CCCCCCOc1ccccc1C(N)=O
72 | > 46 µM | C=C[C@]1(C)C[C@@H](OC(=O)CSC(C)(C)CNC(=O)[C@H](N)C(C)C)[C@]2(C)[C@H](C)CC[C@]3(CCC(=O)[C@H]32)[C@@H](C)[C@@H]1O
73 | > 46 µM | F[C@]2([C@](C)3CC4)[C@@H](O)C[C@]1(C)[C@@](OC(C)=O)([C@@](C)=O)CC[C@]([H])1[C@@]([H])2CCC3=CC4=O
74 | > 46 µM | O=C1C(=Cc2cccs2)CCCC1=Cc1cccs1
75 | > 46 µM | O=C(CCCCCCCCCCCCC1CCCC1)Nc1ccc(S(=O)(=O)c2ccc(NC(=O)CCCCCCCCCCCCC3CCCC3)cc2)cc1
76 | > 46 µM | CC(=O)OCC(=O)[C@@]12OC3(CCCC3)O[C@@H]1C[C@H]1C3CCC4=CC(=O)C=C[C@]4(C)[C@@]3(F)[C@@H](O)C[C@@]12C (some centres not stated)
77 | > 46 µM | Cc1oc(=O)oc1CN1CCN(c2cc3c(cc2F)c(=O)c(C(=O)O)c2n3C(C)S2)CC1 (configuration not stated)
78 | > 46 µM | CC(=O)Nc1ccc(OC(C)=O)cc1
79 | > 46 µM | NC(=O)c1cn(Cc2c(F)cccc2F)nn1
80 | > 46 µM | CC(=O)Oc1cc(C(C)C)c(OCCN(C)C)cc1C.Cl
81 | > 46 µM | CS(=O)(=O)OCC(O)C(O)COS(C)(=O)=O (configuration not stated)
82 | > 46 µM | O=C(O)c1cccnc1
83 | > 46 µM | O=C1CCC(c2ccccc2)(C2CCN(Cc3ccccc3)CC2)C(=O)N1 (configuration not stated)
84 | > 46 µM | CCCNC(C)C(=O)Nc1ccccc1C.Cl (configuration not stated)
85 | > 46 µM | O=C(O)C=CC(=O)Nc1ccc(S(=O)(=O)Nc2nccs2)cc1
86 | > 46 µM | Cc1cccc(Nc2ncccc2C(=O)O)c1C
87 | > 46 µM | CO[C@@H]1[C@H](OC(=O)/C=C/C=C/C=C/C=C/C(=O)O)CC[C@]2(CO2)[C@H]1[C@@]1(C)O[C@@H]1CC=C(C)C
88 | > 46 µM | Nc1c2c(nc3ccccc13)CCCC2
89 | > 46 µM | CC(C)(C)NCC(O)CSc1nc(-c2ccc(C(N)=O)s2)cs1.Cl (configuration not stated)

Row | SMILES | IC50
90 | O=C1Nc2ccc(Cl)cc2C(c2ccccc2Cl)=NC1O (configuration not stated) | > 46 µM
91 | O.O=P1(N(CCCl)CCCl)NCCCO1 (configuration not stated) | > 46 µM
92 | CC(=O)Nc1cc([As](=O)(O)O)ccc1O | > 46 µM
93 | O=C(NC(O)C(Cl)(Cl)Cl)NC(O)C(Cl)(Cl)Cl (configuration not stated) | > 46 µM
94 | Nc1ncnc2c1ncn2CCOCP(=O)(O)O | > 46 µM
95 | Cc1cc(C(=O)O)c(C)n1-c1cccc(C(=O)O)c1.O=C1C[C@@H]2OCC=C3CN4CC[C@]56c7ccccc7N1[C@H]5[C@H]2[C@H]3C[C@H]46 | > 46 µM
96 | O=[C@@](OC)[C@H](C2=CC=CC=C2Cl)N1CC(C=CS3)=C3CC1.O=S(O)(O)=O | > 46 µM
97 | CC(=O)OCC(=O)C1CCC2C3CCC4CC(O)CCC4(C)C3C(=O)CC12C (configuration not stated) | > 46 µM
98 | CCOP(=S)(OCC)Oc1cc(C)nc(C(C)C)n1 | > 46 µM
99 | COc1cc(NC(C)CCCN)c2ncccc2c1.O=P(O)(O)O.O=P(O)(O)O (configuration not stated) | > 46 µM
100 | Cc1nnc2n1-c1ccc(Cl)cc1C(c1ccccc1Cl)=NC2 | > 46 µM
101 | CN(C)CCN(Cc1ccccc1)c1ccccn1.O=C(O)CC(O)(CC(=O)O)C(=O)O | > 46 µM
102 | O=[N+]([O-])C(Br)(CO)CO | > 46 µM
103 | CN1C(=O)COc2c(C(=O)NC3CN4CCC3CC4)cc(Cl)cc21 (configuration not stated) | > 46 µM
104 | CCNCC(O)c1cccc(O)c1.Cl (configuration not stated) | > 46 µM
105 | NCC[C@H](O)C(=O)N[C@@H]1C[C@H](N)[C@@H](O[C@H]2O[C@H](CN)[C@@H](O)[C@H](O)[C@H]2N)[C@H](O[C@@H]2O[C@H](CO)[C@H](O)[C@H]2O)[C@H]1O.O=S(=O)(O)O.O=S(=O)(O)O | > 46 µM
106 | COc1ccc(CN2CCNCC2)c(OC)c1OC.Cl.Cl | > 46 µM
107 | CCCCNCC(O)c1ccc(O)cc1 (configuration not stated) | > 46 µM
